Assay results: paper PMC8878452, “A Tale of Toxin Promiscuity: The Versatile Pharmacological Effects of Hcr 1b-2 Sea Anemone Peptide on Voltage-Gated Ion Channels” (Marine Drugs, 2022)
“Also recorded” adds a separate entry of the source. Bridges are numbered along the chain shown (N, C = ends). Where no end group is shown, it is not given here.

Columns and labels:
[1] = tested on: hNav1.8; assay: TEVC, Nav1.8 in Xenopus oocytes; format: cell-based, human
Description: (§1) For the expression of Kv channels (rKv1.1, rKv1.2, rKv1.3, rKv1.4, rK1.5, rKv1.6, hKv2.1, hKv3.1, rKv4.2, hKv7.1, hKv7.2/7.3, hKv7.4, KQT1 (from the roundworm Caenorhabditis elegans), hKv10.1 (hEAG1), hKv11.1 (hERG1), and Shaker, from Drosophila melanogaster), Nav channels (rNav1.1, rNav1.2, rNav1.3, rNav1.4, hNav1.5, mNav1.6, hNav1.7, hNav1.8, and BgNav (from the cockroach Blattella germanica), as well as the hβ1 and rβ1 subunits, and Cav channels (rCav3.1, hCav3.2, and rCav3.3) in Xenopus oocytes, the linearized plasmids were transcribed using the T7 or SP6 mMESSAGEmMACHINE transcription kit (Ambion, Austin, TX, USA). Mature female animals were purchased from Nasco (Fort Atkinson, WI, USA) and were housed in the Aquatic Facility (KU Leuven) in compliance with the regulations of the European Union (EU) concerning the welfare of laboratory animals as declared in Directive 2010/63/EU. The use of X. laevis oocytes was approved by the Animal Ethics Committee of the KU Leuven, with the license number P186/2019.
(§2) Stage V–VI oocytes were collected from anesthetized female X. laevis frog as previously described, with the frogs anesthetized by placement in a 0.1% tricaine solution (amino benzoic acid ethyl ester; Merck, Kenilworth, NJ, USA). Oocyte microinjection was performed using a microinjector (Drummond Scientifc®, Broomall, PA, USA), with a programmed cRNA injection volume of 4–50 nL, depending on channel subtype. The oocytes were incubated in ND96 solution (96 mM NaCl; 2 mM KCl; 1.8 mM CaCl2; 2 mM MgCl2, and 5 mM HEPES, pH 7.4), supplemented with 50 mg/L of gentamicin sulfate.
(§3) Electrophysiological measurements were performed at room temperature (18–22 °C) using the two-electrode voltage-clamp (TEVC) technique. Data were obtained using a GeneClamp 500 amplifier (Axon Instruments®, Burlingame, CA, USA) and Clampex9 software (Axon Instruments®, USA) was responsible for data acquisition and storage. Glass micropipettes were produced using glass capillaries (borosilicate WPI 1B120-6) and drawn in a WPI (World Precision Instruments®, Sarasota, FL, USA) manual stretcher. The bath and perfusion solutions were either the previously described ND96 (Nav and Kv channels) or calcium-free ND96 supplemented with 10 mM BaCl2 (Cav channels).
(§4) Whole-cell currents of oocytes were recorded 1 to 3 days after RNA injection. The current and voltage electrodes were filled with 3 M KCl, and their resistance was adjusted from 1.0 to 2.5 MΩ. Currents were sampled at 20 kHz (Nav channels) and 10 kHz (Kv and Cav channels) and filtered using a four-pole Bessel low-pass Bessel filter at 1 kHz for sodium and […] for potassium and calcium, except for the hERG ion channel in which the currents were filtered at 1 kHz. Leak subtraction was performed using a P/4 protocol. Kv1.x currents were evoked by 500 ms depolarizations to 0 mV, followed by a 500 ms pulse to −50 mV from a holding potential of −90 mV. Kv2.1, Kv3.1, Kv4.2, Kv7.x, and KQT1 currents were elicited by 700 ms pulses to +20 mV from a holding potential of −90 mV. Current traces of the hERG1 channel were elicited by applying a +40 mV prepulse for 2 s, followed by a step of −120 mV for 2 s. Current traces of hEAG1 were elicited by a 2 s depolarization to 0 mV from a holding potential of −90 mV. Sodium current traces were evoked by a 100 ms depolarization to 0 mV. For Cav channels, current traces were elicited by 700 ms depolarizations to −20 mV from a holding potential of −90 mV. The current–voltage relationships were determined by 50 ms step depolarizations between −90 and +65 mV using 5 or 10 mV increments. All electrophysiological data were analyzed following the procedures described by Peigneur et al., 2012 [20].
All values were expressed as means ± SEM. Differences in ionic currents between the control and toxin conditions were compared by a one-way ANOVA, followed by Dunnett’s multiple comparisons test. Differences were considered statistically significant when […].

[2] = tested on: ASIC3; conditions: cited from earlier work
Description: (§5) Hcr 1b-2, the major peptide, presents 41 residues and belongs to the class 1b of sea anemone toxins, with a molecular mass of 4518.9 Da (Uniprot accession number C0HL52).

[3] = tested on: ASIC1a; conditions: cited from earlier work
Description: as §5

[4] = tested on: BgNav; assay: TEVC, BgNav in Xenopus oocytes; format: cell-based, Blattella germanica
Description: as §1, §2, §3
as §4, with “Current traces of hEAG1 were elicited by a 2 s depolarization to 0 mV from a holding potential of −90 mV. Sodium current traces were evoked by a 100 ms depolarization to 0 mV. For Cav channels, current traces were elicited by 700 ms depolarizations to −20 mV from a holding potential of −90 mV.” left out
(§6) All values were expressed as means ± SEM. […]

[5] = tested on: hKv7.1; assay: TEVC, Kv7.1 in Xenopus oocytes; format: cell-based, human
Description: as §1, §2, §3
as §4, with “Current traces of hEAG1 were elicited by a 2 s depolarization to 0 mV from a holding potential of −90 mV. Sodium current traces were evoked by a 100 ms depolarization to 0 mV. For Cav channels, current traces were elicited by 700 ms depolarizations to −20 mV from a holding potential of −90 mV.” left out
as §6

[6] = tested on: rKv1.4; assay: TEVC, Kv1.4 in Xenopus oocytes; format: cell-based, rat
Description: as §1, §2, §3
as §4, with “Current traces of hEAG1 were elicited by a 2 s depolarization to 0 mV from a holding potential of −90 mV. Sodium current traces were evoked by a 100 ms depolarization to 0 mV. For Cav channels, current traces were elicited by 700 ms depolarizations to −20 mV from a holding potential of −90 mV.” left out
as §6

[7] = tested on: rNav1.1; assay: TEVC, Nav1.1 in Xenopus oocytes; format: cell-based, rat
Description: as §1, §2, §3
as §4, with “Current traces of hEAG1 were elicited by a 2 s depolarization to 0 mV from a holding potential of −90 mV. Sodium current traces were evoked by a 100 ms depolarization to 0 mV. For Cav channels, current traces were elicited by 700 ms depolarizations to −20 mV from a holding potential of −90 mV.” left out
as §6

[8] = tested on: rNav1.4; assay: TEVC, Nav1.4 in Xenopus oocytes; format: cell-based, rat
Description: as §1, §2, §3
as §4, with “Current traces of hEAG1 were elicited by a 2 s depolarization to 0 mV from a holding potential of −90 mV. Sodium current traces were evoked by a 100 ms depolarization to 0 mV. For Cav channels, current traces were elicited by 700 ms depolarizations to −20 mV from a holding potential of −90 mV.” left out
as §6

[9] = tested on: hKv7.2/7.3; assay: TEVC, Kv7.2/7.3 in Xenopus oocytes; format: cell-based, human
Description: as §1, §2, §3
(§7) Whole-cell currents of oocytes were recorded 1 to 3 days after RNA injection. The current and voltage electrodes were filled with 3 M KCl, and their resistance was adjusted from 1.0 to 2.5 MΩ. […] The current–voltage relationships were determined by 50 ms step depolarizations between −90 and +65 mV using 5 or 10 mV increments. All electrophysiological data were analyzed following the procedures described by Peigneur et al., 2012 [20].
as §6

[10] = tested on: rCav3.1; assay: TEVC, Cav3.1 in Xenopus oocytes; format: cell-based, rat
Description: as §1, §2, §3, §7, §6

[11] = tested on: T-type voltage-gated calcium channels; assay: TEVC panel of three T-type Cav channels, voltage dependence; format: cell-based; conditions: 1 µM vs control
Description: as §1, with “P186/2019. […]” for “P186/2019.”
as §7, with “injection.” for “injection. The current and voltage electrodes were filled with 3 M KCl, and their resistance was adjusted from 1.0 to 2.5 MΩ.”
as §6

[12] = 1 µM, 100 ms depolarization to 0 mV, mean ± SEM, n ≥ 3
[13] = 1 µM, TEVC, ND96 pH 7.4, 18–22 °C, n ≥ 3
[14] = 1 µM vs control (ND96 Ca2+ free)

Sequence: GTPCKCHGYIGVYWFMLAGCPNGYGYNLSCPYFLGICCVKK (disulfide 4-37, 6-30, 20-38 (inferred)) [Hcr 1b-2]
- effect on activation or inactivation, Nav1.8 ([1]; 1 µM): no significant effect
- Shift in Vhalf activation, Nav1.8 ([1]; 1 µM vs control (ND96)): −0.3 mV
- Shift in Vhalf inactivation, Nav1.8 ([1]; 1 µM vs control (ND96)): −1.3 mV
- reduction of peak amplitude (INa), Nav1.8 [1, 12]: 18.5 ± 1.9%
- Vhalf activation, Nav1.8 ([1]; 1 µM, control (ND96) −2.3 ± 0.1, mean ± SEM, n ≥ 3): −2.6 ± 0.1 mV
- Vhalf inactivation, Nav1.8 ([1]; 1 µM, control (ND96) −35.6 ± 0.4, mean ± SEM, n ≥ 3): −36.9 ± 0.5 mV
- IC50 [2]: 15.9 ± 1.1 µM
- IC50 [3]: 4.8 ± 0.3 µM
- Shift in Vhalf activation, BgNav ([4]; 1 µM vs control (ND96)): 1.9 mV
- Shift in Vhalf inactivation, BgNav ([4]; 1 µM vs control (ND96)): −5.0 mV
- reduction of peak amplitude (INa) / inhibition, BgNav [4, 12]: 17.7 ± 1.2%
- Vhalf activation, BgNav ([4]; 1 µM, control (ND96) −29.0 ± 0.1, mean ± SEM, n ≥ 3): −27.1 ± 0.1 mV
- Vhalf inactivation, BgNav ([4]; 1 µM, control (ND96) −47.9 ± 0.3, mean ± SEM, n ≥ 3): −52.9 ± 0.3 mV
- gating-modifier effect (voltage-current relationship), Kv7.1 ([5]; 1 µM): stronger shift
- Shift in Vhalf activation, Kv7.1 ([5]; 1 µM vs control (ND96)): 6.4 mV
- activity (inhibition of current), Kv7.1 ([5]; 1 µM, 700 ms pulse to +20 mV from −90 mV, mean ± SEM, n ≥ 3): 36.2 ± 1.3%
- effect on potassium current, Kv7.1 [5, 13]: inhibition; also recorded: inhibits
- Vhalf activation, Kv7.1 ([5]; 1 µM, control (ND96) 5.8 ± 0.4, mean ± SEM): 12.2 ± 0.6 mV
- gating-modifier effect (voltage-current relationship), Kv1.4 ([6]; 1 µM): non-significant gating-modifier effect; also recorded: negligible shift in the midpoint of activation
- Shift in Vhalf activation, Kv1.4 ([6]; 1 µM vs control (ND96)): 2.5 mV
- activity (inhibition of current), Kv1.4 ([6]; 1 µM, 500 ms depolarization to 0 mV from −90 mV, mean ± SEM, n ≥ 3): 46.9 ± 4.3%
- effect on potassium current, Kv1.4 [6, 13]: inhibition
- Vhalf activation, Kv1.4 ([6]; 1 µM, control (ND96) 7.5 ± 0.7, mean ± SEM): 10.0 ± 0.5 mV
- Shift in Vhalf activation, Nav1.1 ([7]; 1 µM vs control (ND96)): 0.1 mV
- Shift in Vhalf inactivation, Nav1.1 ([7]; 1 µM vs control (ND96)): −5.8 mV
- reduction of peak amplitude (INa) / inhibition, Nav1.1 [7, 12]: 31.2 ± 3.8%
- Vhalf activation, Nav1.1 ([7]; 1 µM, control (ND96) −24.6 ± 0.1, mean ± SEM, n ≥ 3): −24.5 ± 0.1 mV
- Vhalf inactivation, Nav1.1 ([7]; 1 µM, control (ND96) −37.2 ± 0.2, mean ± SEM, n ≥ 3): −43 ± 0.4 mV
- Shift in Vhalf activation, Nav1.4 ([8]; 1 µM vs control (ND96)): 5.5 mV
- Shift in Vhalf inactivation, Nav1.4 ([8]; 1 µM vs control (ND96)): −1.7 mV
- reduction of peak amplitude (INa), Nav1.4 [8, 12]: 29.1 ± 3.0%
- Vhalf activation, Nav1.4 ([8]; 1 µM, control (ND96) −24.4 ± 0.1, mean ± SEM, n ≥ 3): −18.9 ± 0.1 mV
- Vhalf inactivation, Nav1.4 ([8]; 1 µM, control (ND96) −48.5 ± 0.3, mean ± SEM, n ≥ 3): −50.2 ± 0.2 mV
- gating-modifier effect (voltage-current relationship), Kv7.2/7.3 ([9]; 1 µM): non-significant gating-modifier effect
- Shift in Vhalf activation, Kv7.2/7.3 ([9]; 1 µM vs control (ND96)): 1.3 mV
- effect on potassium current, Kv7.2/7.3 [9, 13]: inhibition; also recorded: inhibits
- Vhalf activation, Kv7.2/7.3 ([9]; 1 µM, control (ND96) 14.6 ± 0.5, mean ± SEM): 15.9 ± 0.7 mV
- Shift in Vhalf activation, Cav3.1 [10, 14]: −0.2 mV
- Shift in Vhalf inactivation, Cav3.1 [10, 14]: −2.3 mV
- Vhalf activation, Cav3.1 ([10]; 1 µM, control (ND96 Ca2+ free) −41.0 ± 0.1, mean ± SEM, n ≥ 3): −41.2 ± 0.1 mV
- Vhalf inactivation, Cav3.1 ([10]; 1 µM, control (ND96 Ca2+ free) −58.4 ± 0.2, mean ± SEM, n ≥ 3): −60.7 ± 0.2 mV
- changes in voltage–current relationship, Cav3.1–3.3 activation and inactivation [11]: insignificant changes
